Test results as given in patent US20240043435A1, “TYK-2 INHIBITOR” (BEIGENE, LTD., priority 2020, published 2024).

Legend:
[1] = tested on: JAK2, TYK2/p-STAT4 (Tyr693) activated by IL-12 in NK-92 cell line; experiment: IL-12-JAK2, TYK2/p-STAT4 (Tyr693) inhibition IC50 cellular assay; format: cell-based; details: NK92, Cellular assay; read-out: pSTAT4/IL-12 IC50
Summary of the method: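 NK-92 cells were starved overnight without IL-2 and preincubated 1 h at 37° C with compound (8 doses, 10000–0.61 nM, 4-fold, 0.2% DMSO). They were then stimulated with IL-12 (40 ng/ml final) for 30 min. Lysate p-STAT4 (Tyr693) was read by AlphaLISA SureFire; IC50 from four-parameter logistic fit.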

pSTAT5/GM-CSF = pSTAT5/GM-CSF cellular assay (JAK2 selectivity); format: cell-based; details: for Selectivity fold (TYK2/JAK2): pSTAT5/GM-CSF IC50 over pSTAT4/IL-12 IC50
[2] = target: T1, TYK2-JH2 (aa 575-869, in-house) protein (Homo sapiens, UniProt P29597); experiment: TYK2-JH2 biochemical assay (HTRF probe displacement); format: binding; details: Biochemical assay; read-out: TYK2-JH2 IC50
T1 construct: TYK2-JH2 (aa 575-869, in-house) protein; made in house
Summary of the method: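 Recombinant TYK2-JH2 (0.2 nM) was pre-incubated 0.5 h at room temperature with compounds (10 doses, 5-fold dilution; 500× DMSO stocks from 500 uM) in 20 mM HEPES pH 7.5, 10 mM MgCl2, 0.005% BSA, 2 mM DTT, 0.015% Brij-35. Probe displacement was read by HTRF (ex337, em620/665 nm); IC50 from four-parameter logistic fit.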

T1 sequence (P29597 575-869): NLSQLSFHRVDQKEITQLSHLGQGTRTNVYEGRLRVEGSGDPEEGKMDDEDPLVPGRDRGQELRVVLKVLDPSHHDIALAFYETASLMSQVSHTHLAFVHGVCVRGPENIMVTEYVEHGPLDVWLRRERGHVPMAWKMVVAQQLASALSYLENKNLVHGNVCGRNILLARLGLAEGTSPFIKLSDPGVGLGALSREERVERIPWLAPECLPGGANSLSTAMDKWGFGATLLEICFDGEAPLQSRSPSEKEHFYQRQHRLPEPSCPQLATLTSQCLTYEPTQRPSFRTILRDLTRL

SMILES | IC50 [1] [nM] | IC50 (pSTAT5/GM-CSF) [nM] | IC50 [2] [nM] | Selectivity fold (TYK2/JAK2) (pSTAT5/GM-CSF) [fold]
CC(=O)Nc1cc(Nc2cc(OC3CCC3)cc(S(C)(=O)=O)n2)c(-c2ccn(C)n2)cn1 [Example J44, N-(4-((4-cyclobutoxy-6-(methylsulfonyl)pyridin-2-yl)amino)-5-(1-methyl-1H-pyrazol-3-yl)pyridin-2-yl)acetamide] | 0.358 | > 10000 | 0.022 | >27932
COc1ccc(Nc2cc(NC(C)=O)ncc2-c2ccn(C)n2)nc1S(C)(=O)=O [Example J50, N-(4-((5-methoxy-6-(methylsulfonyl)pyridin-2-yl)amino)-5-(1-methyl-1H-pyrazol-3-yl)pyridin-2-yl)acetamide] | 27.7 | > 10000 | 0.049 | >361
CC(=O)Nc1cc(Nc2ccc(C)c(S(C)(=O)=O)n2)c(-c2ccn(C)n2)cn1 [Example J51, N-(5-(1-methyl-1H-pyrazol-3-yl)-4-((5-methyl-6-(methylsulfonyl)pyridin-2-yl)amino)pyridin-2-yl)acetamide] | 1.58 | > 10000 | 0.043 | >6329
CC(=O)Nc1cc(Nc2ccc(F)c(S(C)(=O)=O)n2)c(-c2ccn(C)n2)cn1 [Example J54, N-(4-((5-fluoro-6-(methylsulfonyl)pyridin-2-yl)amino)-5-(1-methyl-1H-pyrazol-3-yl)pyridin-2-yl)acetamide] | 2.03 | > 10000 | 0.028 | >4926
CC(=O)Nc1cc(Nc2cc(OC[C@H](C)O)cc(S(C)(=O)=O)c2)c(-c2ccn(C)n2)cn1 [Example J55, (S)-N-(4-((3-(2-hydroxypropoxy)-5-(methylsulfonyl)phenyl)amino)-5-(1-methyl-1H-pyrazol-3-yl)pyridin-2-yl)acetamide] | 11.4 | > 10000 | 0.033 | >878
CC(=O)Nc1cc(Nc2cc(OCCO)cc(S(C)(=O)=O)c2)c(-c2ccn(C)n2)cn1 [Example J56, N-(4-((3-(2-hydroxyethoxy)-5-(methylsulfonyl)phenyl)amino)-5-(1-methyl-1H-pyrazol-3-yl)pyridin-2-yl)acetamide] | 30.1 | > 10000 | 0.044 | >332
CC(=O)Nc1cc(Nc2cc(OC[C@@H](C)O)cc(S(C)(=O)=O)c2)c(-c2ccn(C)n2)cn1 [Example J57, (R)-N-(4-((3-(2-hydroxypropoxy)-5-(methylsulfonyl)phenyl)amino)-5-(1-methyl-1H-pyrazol-3-yl)pyridin-2-yl)acetamide] | 15.3 | > 10000 | 0.045 | >653
CC(=O)Nc1cc(Nc2cc(OCC(C)C)cc(S(C)(=O)=O)n2)c(-c2ccn(C)n2)cn1 [Example J59, N-(4-((4-isobutoxy-6-(methylsulfonyl)pyridin-2-yl)amino)-5-(1-methyl-1H-pyrazol-3-yl)pyridin-2-yl)acetamide] | 1.31 | > 10000 | 0.029 | >7633
CC[C@H](C)Oc1cc(Nc2cc(NC(C)=O)ncc2-c2ccn(C)n2)nc(S(C)(=O)=O)c1 [Example J60, (S)-N-(4-((4-(sec-butoxy)-6-(methylsulfonyl)pyridin-2-yl)amino)-5-(1-methyl-1H-pyrazol-3-yl)pyridin-2-yl)acetamide] | 0.797 | > 10000 | 0.021 | >12547
CC(=O)Nc1cc(Nc2cc(OC(F)F)cc(S(C)(=O)=O)c2)c(-c2ccn(C)n2)cn1 [Example J62, N-(4-((3-(difluoromethoxy)-5-(methylsulfonyl)phenyl)amino)-5-(1-methyl-1H-pyrazol-3-yl)pyridin-2-yl)acetamide] | 4.85 | > 10000 | 0.037 | >2061
CC(=O)Nc1cc(Nc2nc(S(C)(=O)=O)ccc2OC(F)F)c(-c2ccn(C)n2)cn1 [Example J63, N-(4-((3-(difluoromethoxy)-6-(methylsulfonyl)pyridin-2-yl)amino)-5-(1-methyl-1H-pyrazol-3-yl)pyridin-2-yl)acetamide] | 0.462 | > 10000 | 0.018 | >21645
CC(=O)Nc1cc(Nc2cccc(S(C)(=O)=O)n2)c(-c2ccn(C3CC3)n2)cn1 [Example M1, N-(5-(1-cyclopropyl-1H-pyrazol-3-yl)-4-((6-(methylsulfonyl)pyridin-2-yl)amino)pyridin-2-yl)acetamide] | 0.174 | 2010 | 0.055 | 11551

Continued, in another order:

IC50 [1] [nM] | IC50 (pSTAT5/GM-CSF) [nM] | IC50 [2] [nM] | SMILES | Selectivity fold (TYK2/JAK2) (pSTAT5/GM-CSF) [fold]
0.796 | > 10000 | 0.05 | CC(=O)Nc1cc(Nc2cc(C(F)F)cc(S(C)(=O)=O)n2)c(-c2ccn(C)n2)cn1 [Example J42, N-(4-((4-(difluoromethyl)-6-(methylsulfonyl)pyridin-2-yl)amino)-5-(1-methyl-1H-pyrazol-3-yl)pyridin-2-yl)acetamide] | >12562
0.744 | > 10000 | 0.025 | CCOc1cc(Nc2cc(NC(C)=O)ncc2-c2ccn(C)n2)nc(S(C)(=O)=O)c1 [Example J43, N-(4-((4-ethoxy-6-(methylsulfonyl)pyridin-2-yl)amino)-5-(1-methyl-1H-pyrazol-3-yl)pyridin-2-yl)acetamide] | >13440
0.398 | > 10000 | 0.028 | CC(=O)Nc1cc(Nc2cc(OC3CCCC3)cc(S(C)(=O)=O)n2)c(-c2ccn(C)n2)cn1 [Example J45, N-(4-((4-(cyclopentyloxy)-6-(methylsulfonyl)pyridin-2-yl)amino)-5-(1-methyl-1H-pyrazol-3-yl)pyridin-2-yl)acetamide] | >25125
2.35 | > 10000 | 0.033 | CC(=O)Nc1cc(Nc2cc(OC3CCOC3)cc(S(C)(=O)=O)n2)c(-c2ccn(C)n2)cn1 (centres unmarked) [Example J46, N-(5-(1-methyl-1H-pyrazol-3-yl)-4-((6-(methylsulfonyl)-4-((tetrahydrofuran-3-yl)oxy)pyridin-2-yl)amino)pyridin-2-yl)acetamide] | >4255
4.73 | > 10000 | 0.037 | CC(=O)Nc1cc(Nc2cc(OC[C@@H](C)O)cc(S(C)(=O)=O)n2)c(-c2ccn(C)n2)cn1 [Example J47, (R)-N-(4-((4-(2-hydroxypropoxy)-6-(methylsulfonyl)pyridin-2-yl)amino)-5-(1-methyl-1H-pyrazol-3-yl)pyridin-2-yl)acetamide] | >2114
70.2 | > 10000 | 0.035 | CC(=O)Nc1cc(Nc2cc(OCC(O)CO)cc(S(C)(=O)=O)n2)c(-c2ccn(C)n2)cn1 (centres unmarked) [Example J48, N-(4-((4-(2,3-dihydroxypropoxy)-6-(methylsulfonyl)pyridin-2-yl)amino)-5-(1-methyl-1H-pyrazol-3-yl)pyridin-2-yl)acetamide] | >1421411
1.43 | > 10000 | 0.021 | CC(=O)Nc1cc(Nc2cc(C(F)(F)F)cc(S(C)(=O)=O)n2)c(-c2ccn(C)n2)cn1 [Example J52, N-(5-(1-methyl-1H-pyrazol-3-yl)-4-((6-(methylsulfonyl)-4-(trifluoromethyl)pyridin-2-yl)amino)pyridin-2-yl)acetamide] | >699
3.47 | > 10000 | 0.033 | CCS(=O)(=O)c1cc(OC(C)C)cc(Nc2cc(NC(C)=O)ncc2-c2ccn(C)n2)n1 [Example J53, N-(4-((6-(ethylsulfonyl)-4-isopropoxypyridin-2-yl)amino)-5-(1-methyl-1H-pyrazol-3-yl)pyridin-2-yl)acetamide] | >2881
0.497 | > 10000 | 0.025 | CC(=O)Nc1cc(Nc2cc(OC(F)F)cc(S(C)(=O)=O)n2)c(-c2ccn(C)n2)cn1 [Example J58, N-(4-((4-(difluoromethoxy)-6-(methylsulfonyl)pyridin-2-yl)amino)-5-(1-methyl-1H-pyrazol-3-yl)pyridin-2-yl)acetamide] | >20120
1.42 | > 10000 | 0.019 | CC(=O)Nc1cc(Nc2cc(C3CCOCC3)cc(S(C)(=O)=O)n2)c(-c2ccn(C)n2)cn1 [Example J61, N-(5-(1-methyl-1H-pyrazol-3-yl)-4-((6-(methylsulfonyl)-4-(tetrahydro-2H-pyran-4-yl)pyridin-2-yl)amino)pyridin-2-yl)acetamide] | >7042
1.04 | > 10000 | 0.032 | CC(=O)Nc1cc(Nc2cc(OC(C)C)cc(S(C)(=O)=O)n2)c(-c2ccn(C3CC3)n2)cn1 [Example M2, N-(5-(1-cyclopropyl-1H-pyrazol-3-yl)-4-((4-isopropoxy-6-(methylsulfonyl)pyridin-2-yl)amino)pyridin-2-yl)acetamide] | >9615
